Assay results as given in PubChem BioAssay (NCI).
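48-hour exposure; five concentrations; linearly interpolated endpoints. The concentration for full growth arrest is given as TGI.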

Assays:
Assay in all cases: NCI-60 cell line screen, 48 h
M14 melanoma = test system: M14 melanoma
OVCAR-5 ovarian = test system: OVCAR-5 ovarian
HL-60(TB) leukemia = test system: HL-60(TB) leukemia
OVCAR-8 ovarian = test system: OVCAR-8 ovarian
HOP-62 NSCLC = test system: HOP-62 NSCLC
BT-549 breast = test system: BT-549 breast
NCI-H522 lung = test system: NCI-H522 lung
SR leukemia = test system: SR leukemia
SK-MEL-2 melanoma = test system: SK-MEL-2 melanoma
A549 NSCLC = test system: A549 NSCLC
NCI-H226 lung = test system: NCI-H226 lung
T-47D breast = test system: T-47D breast
HT29 colon = test system: HT29 colon
TK-10 renal = test system: TK-10 renal
IGROV1 ovarian = test system: IGROV1 ovarian
CAKI-1 renal = test system: CAKI-1 renal
EKVX NSCLC = test system: EKVX NSCLC
HCT-15 colon = test system: HCT-15 colon
NCI-H23 lung = test system: NCI-H23 lung
MDA-N = test system: MDA-N
SK-OV-3 ovarian = test system: SK-OV-3 ovarian
HS 578T breast = test system: HS 578T breast
UO-31 renal = test system: UO-31 renal
RXF 393 renal = test system: RXF 393 renal
SK-MEL-28 melanoma = test system: SK-MEL-28 melanoma
UACC-257 melanoma = test system: UACC-257 melanoma
ACHN renal = test system: ACHN renal
U251 CNS = test system: U251 CNS
786-0 renal = test system: 786-0 renal
UACC-62 melanoma = test system: UACC-62 melanoma
DU-145 prostate = test system: DU-145 prostate
MALME-3M melanoma = test system: MALME-3M melanoma
SK-MEL-5 melanoma = test system: SK-MEL-5 melanoma
NCI/ADR-RES ovarian = test system: NCI/ADR-RES ovarian
MOLT-4 leukemia = test system: MOLT-4 leukemia
RPMI-8226 leukemia = test system: RPMI-8226 leukemia
OVCAR-4 ovarian = test system: OVCAR-4 ovarian
OVCAR-3 ovarian = test system: OVCAR-3 ovarian
MCF7 breast = test system: MCF7 breast
SF-295 CNS = test system: SF-295 CNS
LOX IMVI melanoma = test system: LOX IMVI melanoma
SN12C renal = test system: SN12C renal
COLO 205 colon = test system: COLO 205 colon
K-562 leukemia = test system: K-562 leukemia
SW-620 colon = test system: SW-620 colon
A498 renal = test system: A498 renal
MDA-MB-435 = test system: MDA-MB-435
MDA-MB-231 breast = test system: MDA-MB-231 breast
SNB-19 CNS = test system: SNB-19 CNS
HOP-92 NSCLC = test system: HOP-92 NSCLC
HCT-116 colon = test system: HCT-116 colon
PC-3 prostate = test system: PC-3 prostate
KM12 colon = test system: KM12 colon
SF-268 CNS = test system: SF-268 CNS

For `CC(C)CC1c2[nH]c3ccccc3c2C[C@H]2C(=O)NC(COC(C)(C)C)C(=O)N12` (some centres undefined), the TGI (M14 melanoma) was 46.7 µM, the TGI (OVCAR-5 ovarian) was 54.8 µM and the TGI (HL-60(TB) leukemia) was 53.4 µM. For the same compound, the TGI (OVCAR-8 ovarian) was > 100 µM, the TGI (HOP-62 NSCLC) was 79.3 µM and the TGI (BT-549 breast) was 60.9 µM. It also gave a TGI (NCI-H522 lung) of 35.4 µM, a TGI (SR leukemia) of 46.2 µM and a TGI (SK-MEL-2 melanoma) of 38.8 µM. The TGI (A549 NSCLC) was > 100 µM, the TGI (NCI-H226 lung) was 93 µM and the TGI (T-47D breast) was 43.4 µM. For the same compound, the TGI (HT29 colon) was 38.3 µM, the TGI (TK-10 renal) was 56.3 µM and the TGI (IGROV1 ovarian) was 63.1 µM. The TGI (CAKI-1 renal) was 79.5 µM, the TGI (EKVX NSCLC) was 71.7 µM and the TGI (HCT-15 colon) was 80.2 µM. For the same compound, the TGI (NCI-H23 lung) was 91.3 µM, the TGI (MDA-N) was 51.8 µM and the TGI (SK-OV-3 ovarian) was > 100 µM. For the same compound, the TGI (HS 578T breast) was 37 µM, the TGI (UO-31 renal) was > 100 µM and the TGI (RXF 393 renal) was 41 µM. The TGI (SK-MEL-28 melanoma) was > 100 µM, the TGI (UACC-257 melanoma) was 39.3 µM and the TGI (ACHN renal) was 88.4 µM. The TGI (U251 CNS) was 41 µM, the TGI (786-0 renal) was 98.5 µM and the TGI (UACC-62 melanoma) was 49.5 µM. For the same compound, the TGI (DU-145 prostate) was > 100 µM, the TGI (MALME-3M melanoma) was 48.2 µM and the TGI (SK-MEL-5 melanoma) was 47.4 µM. It also gave a TGI (NCI/ADR-RES ovarian) of 56.7 µM, a TGI (MOLT-4 leukemia) of 57.9 µM and a TGI (RPMI-8226 leukemia) of 58 µM. The TGI (OVCAR-4 ovarian) was > 100 µM, the TGI (OVCAR-3 ovarian) was 16.3 µM and the TGI (MCF7 breast) was > 100 µM. For the same compound, the TGI (SF-295 CNS) was 35 µM, the TGI (LOX IMVI melanoma) was 34.7 µM and the TGI (SN12C renal) was 47.9 µM. For the same compound, the TGI (COLO 205 colon) was 38.8 µM, the TGI (K-562 leukemia) was 92.7 µM and the TGI (SW-620 colon) was > 100 µM. The TGI (A498 renal) was > 100 µM, the TGI (MDA-MB-435) was 39.9 µM and the TGI (MDA-MB-231 breast) was 38.8 µM. For the same compound, the TGI (SNB-19 CNS) was > 100 µM, the TGI (HOP-92 NSCLC) was 74.7 µM and the TGI (HCT-116 colon) was 37.9 µM. For the same compound, the TGI (PC-3 prostate) was 55.1 µM, the TGI (KM12 colon) was 80.2 µM and the TGI (SF-268 CNS) was 57.5 µM.
